Patent US7582725B2, “Agents, which inhibit apoptosis in cells that are involved in wound healing” (Dermatools Biotech GmbH, priority 2001, dated 2009)

Legend:
Type in all cases: cell-based
MRC-5 fibroblasts [1] = experiment: Tension-dependent apoptosis of MRC-5 fibroblasts in collagen matrices (relaxed), DAPI staining; conditions: relaxed collagen matrix
Procedure: 2×10^5 cells are seeded in each collagen matrix. For this purpose, 100 μl of the cell suspension (the appropriate cell titer is adjusted after the trypsinization in serum-free DMEM) are introduced into 1.5 ml reaction vessels pre-equilibrated at 37° C., 100 μl of the neutralized collagen solution are added, and the resulting solution is incubated at 37° C. for 4 min. The collagen concentration is 1.5 mg/ml. The cell/collagen suspension is seeded in 24-well cell culture plates or in 3.5 cm culture dishes. The matrix is polymerized at 37° C. for 60 min.
The matrices are covered with a layer of culture medium (DMEM+10% FCS+50 μg/ml ascorbic acid) and cultivated in an incubator at 37° C. and 8.5% by volume CO2 in a water vapor-saturated air atmosphere for 24 h.
The adherent matrix is cautiously detached with a spatula from the substrate and “floats” in the culture medium without contact with the substrate. The tension is abolished. The cultivation takes place for the period stated in each case.
The cells are cultivated as stated in example 11. Day “0” corresponds to the time after 24 h cultivation with ascorbic acid-containing medium before further cultivation under tensioned or relaxed conditions. After the stated times, the cell/collagen matrix is fixed in 4% (w/v) paraformaldehyde in PBS, followed by DAPI staining. […]

MRC-5 fibroblasts [2] = experiment: Incubation of fibroblasts with anti-apoptotic peptides: TSP-1 induced apoptosis, DAPI staining; conditions: 24 h; for Inhibition index [%]: 100−(measured apoptosis index*100/control apoptosis index), 1 μg/ml TSP-1 + peptide 1 mM; for Apoptosis index [%]: static, fresh medium with 1 μg/ml TSP-1 + peptide 1 mM, 3 independent experiments, average ± SD
Procedure: The cells are cultivated under static culture conditions as in example 1/variant 1B1. The cells are seeded in the appropriate culture vessels (e.g. 24-well plate/0.5 ml per well) and employed for the test 3 days after complete confluence is reached. The cells are provided with new medium: • (a) fresh culture medium [basic rate of apoptosis] • (b) fresh culture medium with 1 μg/ml TSP-1 [apoptosis-inducing substance; control] • (c) culture medium (b)+peptide of SEQ ID NO 1; 1 mM • (d) culture medium (b)+peptide of SEQ ID NO 2; 1 mM • (e) culture medium (b)+peptide of SEQ ID NO 3; 1 mM • (f) culture medium (b)+peptide of SEQ ID NO 4; 1 mM • (g) culture medium (b)+peptide of SEQ ID NO 7; 1 mM • (h) culture medium (b)+peptide of SEQ ID NO 8; 1 mM • (i) culture medium (b)+peptide of SEQ ID NO 9; 1 mM • (j) culture medium (b)+peptide of SEQ ID NO 10; 1 mM • (k) culture medium (b)+peptide of SEQ ID NO 11; 1 mM • (l) culture medium (b)+peptide of SEQ ID NO 5; 1 mM • (m) culture medium (b)+peptide of SEQ ID NO 6; 1 mM
After incubation under culture conditions (example 1) for 24 h, the cells are fixed, stained with DAPI and examined morphologically under the fluorescence microscope. The apoptotic cells and the total number of cells are determined, and the apoptosis index is calculated (percent of apoptotic cells). The data from 3 independent experiments are indicated in the following table, indicating the averages and the standard deviation.
The inhibition index of the peptides employed is calculated as follows:
Inhibition index [%]=100−(measured apoptosis index* 100/control apoptosis index)

MRC-5 fibroblasts [3] = experiment: Rate of apoptosis of dynamically cultivated MRC-5 fibroblasts (cone and plate shear apparatus), DAPI staining
Procedure: The fibroblasts are initially cultivated under static conditions until confluence is reached. This is followed by cultivation under dynamic conditions in the cone and plate shear apparatus (after Bussolori et al. (1982) Rev. Sci. Instrum. 53, 1851-1854) for 24 h.
This is done by precultivation of the cells initially in gelatinized culture dishes (◯=35 mm) with 0.15 ml/cm^2 culture medium and then further cultivation under turbulent or laminar flow conditions in the cone and plate shear apparatus for a maximum of 24 h. The flow conditions result from the angle of the cone. The flow over the cells is turbulent at a cone angle of 5° and is laminar at a cone angle of 0.5°.
Before use, the cone and plate shear apparatus is cleaned with a soft cloth and 70% (v/v) ethanol, the cone is sterilized and the apparatus is equilibrated at 37° C. in a heating cabinet. […]
The culture supernatant from a Petri dish is aspirated off, and the cell lawn is fixed with 1 ml of formaldehyde solution on ice for 15 minutes, washed twice with 2 ml of PBS, treated with 0.5 ml of DAPI solution for 15 minutes, washed with PBS and evaluated under the fluorescence microscope. […] 500-1 000 cells are selected at random, and the cells with apoptotic nuclei are counted. […]

MRC-5 fibroblasts [4] = experiment: Rate of apoptosis of statically cultivated MRC-5 fibroblasts, DAPI staining; conditions: for Apoptosis [%]: static, 24 h, substance in fresh medium, or conditioned medium alone
Procedure: The MRC-5 cell line used is seeded in ungelatinized cell culture vessels. The subsequent cultivation takes place in an incubator at 37° C. and 5% by vol. CO2 in a water vapor-saturated atmosphere. The culture medium is changed every second to third day and, after confluence is reached, the cells are passaged with a division rate from 1:5 to 1:10.
The culture supernatant from a Petri dish is aspirated off, and the cell lawn is fixed with 1 ml of formaldehyde solution on ice for 15 minutes, washed twice with 2 ml of PBS, treated with 0.5 ml of DAPI solution for 15 minutes, washed with PBS and evaluated under the fluorescence microscope. The UV filter set and a 20× or 40× objective are used. 500-1 000 cells are selected at random, and the cells with apoptotic nuclei are counted.
The apoptosis index is calculated by the following formula: […]
The used culture medium from a confluent MRC-5 fibroblast culture is removed, and the cell lawn is washed once with culture medium and cultivated under the stated conditions for 24 h.
The used culture medium from a confluent culture is removed, and the cell lawn is washed once with culture medium and cultivated under the stated conditions for 24 h.

Row | Compound | Inhibition index [%] (MRC-5 fibroblasts [2]) | Apoptosis index [%] (MRC-5 fibroblasts [2]) | other results
1 | CO[C@@H]1C(=O)O[C@H](C)[C@H](C)/C=C(\C)C[C@H](C)C(=O)N[C@@H](C)C(=O)N(C)[C@H](Cc2c[nH]c3ccccc23)C(=O)N[C@H]1c1ccc(O)cc1 [chondramide A, reference compound] |  |  | Apoptosis [%] (MRC-5 fibroblasts [1]; Example 14, 1 μM for 1 h before detachment, 8 h further cultivation): 1.0 ± 0.2%
2 | K-R-A-Y-V-V-M-W-K-K (KRAYVVMWKK) [SEQ ID NO 5] | 90.1 ± 4.9% | 0.42 ± 0.21% | 
3 | K-R-E-Y-V-V-M-W-K-K (KREYVVMWKK) [SEQ ID NO 6] | 94.4 ± 4.2% | 0.24 ± 0.18% | 
4 | R-A-Y-V-V-M (RAYVVM) [SEQ ID NO 1] | 71.4 ± 6.8% | 1.21 ± 0.29% | 
5 | R-D-Y-V-V-M (RDYVVM) [SEQ ID NO 11] | 38.9 ± 16.7% | 2.66 ± 0.71% | 
6 | R-E-Y-V-V-M (REYVVM) [SEQ ID NO 4] | 80.4 ± 7.0% | 0.87 ± 0.32% | 
7 | R-G-Y-V-V-M (RGYVVM) [SEQ ID NO 7] | 53.7 ± 13.9% | 2.00 ± 0.59% | 
8 | R-M-Y-V-V-M (RMYVVM) [SEQ ID NO 8] | 42.8 ± 6.9% | 2.46 ± 0.29% | 
9 | R-N-Y-V-V-M (RNYVVM) [SEQ ID NO 10] | 13.5 ± 16.2% | 3.70 ± 1.11% | 
10 | R-T-Y-V-V-M (RTYVVM) [SEQ ID NO 9] | 25.4 ± 11.8% | 3.19 ± 0.50% | 
11 | R-W-Y-V-V-M (RWYVVM) [SEQ ID NO 2] | 53.7 ± 6.8% | 2.00 ± 0.29% | 
12 | R-Y-Y-V-V-M (RYYVVM) [SEQ ID NO 3] | 65.3 ± 0.9% | 1.45 ± 0.04% | 
13 | thrombospondin 1 [TSP-1] |  |  | Apoptosis [%] (MRC-5 fibroblasts [1]; Example 13, DMEM/FCS + substance, 24 h, antibodies 50 μg/ml, Tsp1 20 μg/ml): 10.5 ± 0.5%; Apoptosis [%] (MRC-5 fibroblasts [3]; dynamic cultivation, 24 h, conditioned medium alone or fresh medium + TSP-1): 0.4 ± 0.1%; Effect on apoptosis of dynamic fibroblast cell culture (in words) (MRC-5 fibroblasts [3]; dynamic culture): no effect on apoptosis; Apoptosis [%] (MRC-5 fibroblasts [4]; Example 6): 5.6 ± 0.2%; Apoptosis [%] (MRC-5 fibroblasts [4]; Example 7): 5.6 ± 0.2%; Effect on apoptosis of statically cultivated fibroblasts (in words) (MRC-5 fibroblasts [4]; static culture): increase in spontaneous apoptosis
